Results from paper PMC5218480 (PLoS ONE, 2017).

Test system: MV-4-11 cells
Assay: Gene expression microarray analysis (Affymetrix PrimeView) and GSEA
Format: cell-based, human
Design: RFU PODN (11730768_x_at) / Fold change /veh PODN (11730768_x_at) / RFU LINC00158 (11744669_a_at) / Fold change /veh LINC00158 (11744669_a_at) / RFU DUSP10 (11751237_a_at) / Fold change /veh DUSP10 (11751237_a_at) / RFU ID3 (11757404_x_at) / Fold change /veh ID3 (11757404_x_at) / RFU PLEKHG5 (11737974_s_at) / Fold change /veh PLEKHG5 (11737974_s_at) / RFU LRRC4B (11730491_at) / Fold change /veh LRRC4B (11730491_at) / RFU GIMAP4 (11747438_a_at) / Fold change /veh GIMAP4 (11747438_a_at) / RFU KRT8 (11758183_x_at) / Fold change /veh KRT8 (11758183_x_at) / RFU CNN1 (11734310_a_at) / Fold change /veh CNN1 (11734310_a_at) / RFU VPS37D (11726825_at) / Fold change /veh VPS37D (11726825_at) / RFU C10orf10 (11716522_x_at) / Fold change /veh C10orf10 (11716522_x_at) / RFU KIR2DL2 /// KIR2DL4 /// KIR2DL5A /// KIR2DL5B /// KIR2DS1 /// KIR2DS2 /// KIR2DS3 /// KIR2DS4 /// KIR3DL3 /// KIR3DL3 /// KIR3DS1 (11738374_at) / Fold change /veh KIR2DL2 /// KIR2DL4 /// KIR2DL5A /// KIR2DL5B /// KIR2DS1 /// KIR2DS2 /// KIR2DS3 /// KIR2DS4 /// KIR3DL3 /// KIR3DL3 /// KIR3DS1 (11738374_at) / RFU C1QL1 (11718748_at) / Fold change /veh C1QL1 (11718748_at) / RFU TMPRSS4 (11747572_a_at) / Fold change /veh TMPRSS4 (11747572_a_at) / RFU HAMP (11756126_x_at) / Fold change /veh HAMP (11756126_x_at) / RFU RNFT2 (11725882_a_at) / Fold change /veh RNFT2 (11725882_a_at) / RFU NR4A2 (11747474_a_at) / Fold change /veh NR4A2 (11747474_a_at) / RFU ABCC12 (11746883_a_at) / Fold change /veh ABCC12 (11746883_a_at) / RFU TMEM136 (11760407_x_at) / Fold change /veh TMEM136 (11760407_x_at) / RFU CLDN22 /// WWC2 (11732394_at) / Fold change /veh CLDN22 /// WWC2 (11732394_at) / RFU HLA-DPB1 (11760878_x_at) / Fold change /veh HLA-DPB1 (11760878_x_at) / RFU SPINT1 (11716480_a_at) / Fold change /veh SPINT1 (11716480_a_at) / RFU GAP43 (11754022_s_at) / Fold change /veh GAP43 (11754022_s_at) / RFU A4GNT (11735810_at) / Fold change /veh A4GNT (11735810_at) / RFU PRB3 (11715151_x_at) / Fold change /veh PRB3 (11715151_x_at) / RFU TUBB4B (11761932_at) / Fold change /veh TUBB4B (11761932_at) / RFU CAPN14 (11732068_a_at) / Fold change /veh CAPN14 (11732068_a_at) / RFU TMCC2 (11721928_a_at) / Fold change /veh TMCC2 (11721928_a_at) / RFU IRGQ (11745062_a_at) / Fold change /veh IRGQ (11745062_a_at) / RFU FAM174B (11720279_a_at) / Fold change /veh FAM174B (11720279_a_at) / RFU TMPRSS4 (11748680_a_at) / Fold change /veh TMPRSS4 (11748680_a_at) / RFU FAM212B (11763350_a_at) / Fold change /veh FAM212B (11763350_a_at) / RFU PLEKHG5 (11743358_a_at) / Fold change /veh PLEKHG5 (11743358_a_at) / RFU ZSCAN30 (11745921_a_at) / Fold change /veh ZSCAN30 (11745921_a_at) / RFU CMKLR1 (11741424_a_at) / Fold change /veh CMKLR1 (11741424_a_at) / RFU LOC101060620 /// MAPK8IP1 (11723275_at) / Fold change /veh LOC101060620 /// MAPK8IP1 (11723275_at) / RFU SPTSSB (11747773_x_at) / Fold change /veh SPTSSB (11747773_x_at) / RFU PRSS12 (11739890_at) / Fold change /veh PRSS12 (11739890_at) / RFU BIN1 (11741810_x_at) / Fold change /veh BIN1 (11741810_x_at) / RFU WNT11 (11732464_a_at) / Fold change /veh WNT11 (11732464_a_at) / RFU C10orf10 (11716521_a_at) / Fold change /veh C10orf10 (11716521_a_at) / RFU C5orf56 (11738089_at) / Fold change /veh C5orf56 (11738089_at) / RFU CYB561 (11721691_x_at) / Fold change /veh CYB561 (11721691_x_at) / RFU ANKRD19P (11752326_a_at) / Fold change /veh ANKRD19P (11752326_a_at) / RFU OR2T12 /// OR2T33 /// OR2T8 (11738714_s_at) / Fold change /veh OR2T12 /// OR2T33 /// OR2T8 (11738714_s_at) / RFU VCAN (11748164_a_at) / Fold change /veh VCAN (11748164_a_at) / RFU JSRP1 (11732532_at) / Fold change /veh JSRP1 (11732532_at) / RFU KRTAP10-11 (11738290_x_at) / Fold change /veh KRTAP10-11 (11738290_x_at) / RFU MYO3A (11730013_a_at) / Fold change /veh MYO3A (11730013_a_at) / RFU EBF3 (11725865_a_at) / Fold change /veh EBF3 (11725865_a_at) / RFU CAMK2N1 (11719241_x_at) / Fold change /veh CAMK2N1 (11719241_x_at) / RFU C5orf56 (11738088_a_at) / Fold change /veh C5orf56 (11738088_a_at) / RFU OLFML3 (11715873_a_at) / Fold change /veh OLFML3 (11715873_a_at) / RFU LOC100653217 /// NTM (11731650_a_at) / Fold change /veh LOC100653217 /// NTM (11731650_a_at) / RFU MAPK11 (11762145_a_at) / Fold change /veh MAPK11 (11762145_a_at) / RFU FIZ1 (11724087_x_at) / Fold change /veh FIZ1 (11724087_x_at) / RFU OASL (11726364_x_at) / Fold change /veh OASL (11726364_x_at) / RFU SOX15 (11748057_x_at) / Fold change /veh SOX15 (11748057_x_at) / RFU CD79A (11719716_a_at) / Fold change /veh CD79A (11719716_a_at) / RFU HIST1H1D (11736915_at) / Fold change /veh HIST1H1D (11736915_at) / RFU CASKIN2 (11723855_a_at) / Fold change /veh CASKIN2 (11723855_a_at) / RFU LOC730098 (11760151_x_at) / Fold change /veh LOC730098 (11760151_x_at) / RFU OR4N2 (11742367_at) / Fold change /veh OR4N2 (11742367_at) / RFU PRRT2 (11749266_a_at) / Fold change /veh PRRT2 (11749266_a_at) / RFU SNX32 (11753110_a_at) / Fold change /veh SNX32 (11753110_a_at) / RFU CDHR5 (11726645_a_at) / Fold change /veh CDHR5 (11726645_a_at) / RFU RCAN1 (11760418_a_at) / Fold change /veh RCAN1 (11760418_a_at) / RFU FAM167A (11723789_a_at) / Fold change /veh FAM167A (11723789_a_at) / RFU FAM26E (11764081_at) / Fold change /veh FAM26E (11764081_at) / RFU ISYNA1 (11749810_s_at) / Fold change /veh ISYNA1 (11749810_s_at) / RFU ACY1 (11761880_at) / Fold change /veh ACY1 (11761880_at) / RFU 11764098_at / Fold change /veh 11764098_at / RFU SAMD14 (11745864_x_at) / Fold change /veh SAMD14 (11745864_x_at) / RFU NPB (11741838_a_at) / Fold change /veh NPB (11741838_a_at) / RFU TMPRSS6 (11731388_a_at) / Fold change /veh TMPRSS6 (11731388_a_at) / RFU KRTAP10-2 (11738614_at) / Fold change /veh KRTAP10-2 (11738614_at) / RFU ARHGAP8 /// PRR5-ARHGAP8 (11727945_x_at) / Fold change /veh ARHGAP8 /// PRR5-ARHGAP8 (11727945_x_at) / RFU KRTAP5-7 /// NADSYN1 (11734609_at) / Fold change /veh KRTAP5-7 /// NADSYN1 (11734609_at) / RFU RASL12 (11751679_a_at) / Fold change /veh RASL12 (11751679_a_at) / RFU CDKN2B (11736163_a_at) / Fold change /veh CDKN2B (11736163_a_at) / RFU PRF1 (11729649_at) / Fold change /veh PRF1 (11729649_at) / RFU, ZNF638 /// ZNF638-IT1 / Fold change vs veh, ZNF638 /// ZNF638-IT1 / RFU, PANK3 / Fold change vs veh, PANK3 / RFU, SH3YL1 / Fold change vs veh, SH3YL1 / RFU, ZEB2 / Fold change vs veh, ZEB2 / RFU, NRIP1 / Fold change vs veh, NRIP1 / RFU, PTTG1IP / Fold change vs veh, PTTG1IP / RFU, CAPN2 / Fold change vs veh, CAPN2 / RFU, MED14 / Fold change vs veh, MED14 / RFU, SNORA58 / Fold change vs veh, SNORA58 / RFU, C1orf63 / Fold change vs veh, C1orf63 / RFU, LRRFIP1 / Fold change vs veh, LRRFIP1 / RFU, NDUFAF7 / Fold change vs veh, NDUFAF7 / RFU, SLC12A2 / Fold change vs veh, SLC12A2 / RFU, IBTK / Fold change vs veh, IBTK / RFU, ESF1 / Fold change vs veh, ESF1 / Fold change vs veh, TMEM50B / RFU, TAOK1 / Fold change vs veh, TAOK1 / RFU, ACBD3 / Fold change vs veh, ACBD3 / RFU, TMA16 / Fold change vs veh, TMA16 / RFU, RWDD3 / Fold change vs veh, RWDD3 / RFU, BCAT1 / Fold change vs veh, BCAT1 / RFU, EDEM3 / Fold change vs veh, EDEM3 / RFU, TMEM33 / Fold change vs veh, TMEM33 / RFU, WDR75 / Fold change vs veh, WDR75 / RFU, AHCTF1 / Fold change vs veh, AHCTF1 / RFU, TFRC / Fold change vs veh, TFRC / RFU, ZDHHC17 / Fold change vs veh, ZDHHC17 / RFU, NOM1 / Fold change vs veh, NOM1 / RFU, ARL8B / Fold change vs veh, ARL8B / RFU, ZBTB11 / Fold change vs veh, ZBTB11 / RFU, TAMM41 / Fold change vs veh, TAMM41 / RFU, KIAA1704 /// LOC100996395 / Fold change vs veh, KIAA1704 /// LOC100996395 / RFU, ING1 / Fold change vs veh, ING1 / RFU, TRMT61B / Fold change vs veh, TRMT61B / RFU, FUBP3 / Fold change vs veh, FUBP3 / RFU, TP53 / Fold change vs veh, TP53 / RFU, TNKS2 / Fold change vs veh, TNKS2 / RFU, ZFP14 / Fold change vs veh, ZFP14 / RFU, ACTR2 / Fold change vs veh, ACTR2 / RFU, PPP3R1 / Fold change vs veh, PPP3R1 / RFU, PIK3R1 / Fold change vs veh, PIK3R1 / RFU, HNRNPA1 / Fold change vs veh, HNRNPA1 / RFU, RNF170 / Fold change vs veh, RNF170 / RFU, ZNF28 / Fold change vs veh, ZNF28 / RFU, RNGTT / Fold change vs veh, RNGTT / RFU, OGT / Fold change vs veh, OGT / RFU, BRD1 / Fold change vs veh, BRD1 / RFU, MARS / Fold change vs veh, MARS / RFU, ZNF655 / Fold change vs veh, ZNF655 / RFU, FAHD1 / Fold change vs veh, FAHD1 / RFU, BDP1 / Fold change vs veh, BDP1 / RFU, LRRCC1 / Fold change vs veh, LRRCC1 / RFU, ARID1A / Fold change vs veh, ARID1A / RFU, ZNF146 / Fold change vs veh, ZNF146 / RFU, ZNF330 / Fold change vs veh, ZNF330 / RFU, GPN3 / Fold change vs veh, GPN3 / RFU, C9orf123 / Fold change vs veh, C9orf123 / RFU, N4BP2L2 / Fold change vs veh, N4BP2L2 / RFU, ARFIP1 / Fold change vs veh, ARFIP1 / RFU, FAM179B / Fold change vs veh, FAM179B / RFU, BCL10 / Fold change vs veh, BCL10 / RFU, UHRF1BP1L / Fold change vs veh, UHRF1BP1L / RFU, BET1 / Fold change vs veh, BET1 / RFU, CNOT2 / Fold change vs veh, CNOT2 / RFU, ZNF268 / Fold change vs veh, ZNF268 / Fold change vs veh, ZNF507 / RFU, DGCR2 / Fold change vs veh, DGCR2 / RFU, WDSUB1 / Fold change vs veh, WDSUB1 / Fold change vs veh, HSP90B1 /// MIR3652 / RFU, ADSS / Fold change vs veh, ADSS / RFU, GK / Fold change vs veh, GK / RFU, ZNF148 / Fold change vs veh, ZNF148 / RFU, TAF9 / Fold change vs veh, TAF9 / RFU, SLC1A5 / Fold change vs veh, SLC1A5 / RFU, SLMO2 / Fold change vs veh, SLMO2 / RFU, ABCC4 / Fold change vs veh, ABCC4 / RFU, LOC101060439 /// RAP1B / Fold change vs veh, LOC101060439 /// RAP1B / RFU, RFX7 / Fold change vs veh, RFX7 / RFU, GTPBP10 / Fold change vs veh, GTPBP10 / RFU, CNEP1R1 / Fold change vs veh, CNEP1R1 / RFU, BIVM-ERCC5 /// ERCC5 / Fold change vs veh, BIVM-ERCC5 /// ERCC5 / RFU, ILF3 / Fold change vs veh, ILF3 / RFU 11762660_at / Fold change /veh 11762660_at / RFU VCAN (11757783_s_at) / Fold change /veh VCAN (11757783_s_at) / RFU DDX43 (11728927_at) / Fold change /veh DDX43 (11728927_at) / RFU KRT8 (11758188_x_at) / Fold change /veh KRT8 (11758188_x_at) / RFU NKD1 (11759106_at) / Fold change /veh NKD1 (11759106_at) / RFU SRD5A1 (11742802_a_at) / Fold change /veh SRD5A1 (11742802_a_at) / RFU TPSAB1 /// TPSB2 (11721975_s_at) / Fold change /veh TPSAB1 /// TPSB2 (11721975_s_at) / RFU GSTM3 (11746129_a_at) / Fold change /veh GSTM3 (11746129_a_at) / RFU IL23R (11737362_x_at) / Fold change /veh IL23R (11737362_x_at) / RFU TMEM51 (11727254_a_at) / Fold change /veh TMEM51 (11727254_a_at) / RFU PIWIL2 (11732686_x_at) / Fold change /veh PIWIL2 (11732686_x_at) / RFU ORM1 (11744905_x_at) / Fold change /veh ORM1 (11744905_x_at) / RFU CCDC152 (11743942_at) / Fold change /veh CCDC152 (11743942_at) / RFU ECM1 (11717891_a_at) / Fold change /veh ECM1 (11717891_a_at) / RFU IL23R (11748794_a_at) / Fold change /veh IL23R (11748794_a_at) / RFU TNFAIP8L3 (11732012_x_at) / Fold change /veh TNFAIP8L3 (11732012_x_at) / RFU MBOAT4 (11741988_at) / Fold change /veh MBOAT4 (11741988_at) / RFU 11764193_at / Fold change /veh 11764193_at / RFU TMEM53 (11763286_at) / Fold change /veh TMEM53 (11763286_at) / RFU MAGEB2 (11727129_at) / Fold change /veh MAGEB2 (11727129_at) / RFU TMEM200A (11744735_a_at) / Fold change /veh TMEM200A (11744735_a_at) / RFU CCDC152 (11751479_a_at) / Fold change /veh CCDC152 (11751479_a_at) / RFU FAM211A (11726209_a_at) / Fold change /veh FAM211A (11726209_a_at) / RFU RGS16 (11746705_a_at) / Fold change /veh RGS16 (11746705_a_at) / RFU VCAN (11755009_s_at) / Fold change /veh VCAN (11755009_s_at) / RFU RHOB (11743442_s_at) / Fold change /veh RHOB (11743442_s_at) / RFU RGS16 (11720943_a_at) / Fold change /veh RGS16 (11720943_a_at) / RFU RGS16 (11720944_at) / Fold change /veh RGS16 (11720944_at) / RFU, VPS4B / Fold change vs veh, VPS4B / RFU, CREB1 / Fold change vs veh, CREB1 / RFU, DNAJC13 / Fold change vs veh, DNAJC13 / RFU, GNAQ / Fold change vs veh, GNAQ / RFU, CDK5R1 / Fold change vs veh, CDK5R1 / RFU, ZRANB3 / Fold change vs veh, ZRANB3 / RFU, CUL4A / Fold change vs veh, CUL4A / RFU, CCNY / Fold change vs veh, CCNY / RFU, UFL1 / Fold change vs veh, UFL1 / RFU, COG3 / Fold change vs veh, COG3 / RFU, DIAPH2 / Fold change vs veh, DIAPH2 / RFU, SKA2 / Fold change vs veh, SKA2 / RFU, AFF3 / Fold change vs veh, AFF3 / RFU, LMF1 / Fold change vs veh, LMF1 / RFU, IPO11 / Fold change vs veh, IPO11 / RFU, DFFB / Fold change vs veh, DFFB / RFU, FOXP1 / Fold change vs veh, FOXP1 / RFU, CARD8 / Fold change vs veh, CARD8 / RFU, STRN3 / Fold change vs veh, STRN3 / RFU, ADK / Fold change vs veh, ADK / RFU, RASSF2 / Fold change vs veh, RASSF2 / RFU, WIPF1 / Fold change vs veh, WIPF1 / RFU, LARP1B / Fold change vs veh, LARP1B / RFU, RASA1 / Fold change vs veh, RASA1 / RFU, RB1 / Fold change vs veh, RB1 / RFU, PPFIA1 / Fold change vs veh, PPFIA1 / RFU, MAT2A / Fold change vs veh, MAT2A / RFU, CCT5 / Fold change vs veh, CCT5 / RFU, WDR92 / Fold change vs veh, WDR92 / RFU, CUX1 / Fold change vs veh, CUX1 / RFU, TTC7A / Fold change vs veh, TTC7A / RFU, TMEM135 / Fold change vs veh, TMEM135 / RFU, DEPTOR / Fold change vs veh, DEPTOR / RFU, CPM / Fold change vs veh, CPM / RFU, DNAJB6 / Fold change vs veh, DNAJB6 / RFU, CACNA2D3 / Fold change vs veh, CACNA2D3 / RFU, DTX4 / Fold change vs veh, DTX4 / RFU, TFCP2 / Fold change vs veh, TFCP2 / RFU, GMCL1 /// GMCL1P1 / Fold change vs veh, GMCL1 /// GMCL1P1 / RFU, AEBP2 / Fold change vs veh, AEBP2 / RFU, SNHG1 /// SNORD22 /// SNORD25 /// SNORD26 /// SNORD27 /// SNORD28 /// SNORD29 /// SNORD31 / Fold change vs veh, SNHG1 /// SNORD22 /// SNORD25 /// SNORD26 /// SNORD27 /// SNORD28 /// SNORD29 /// SNORD31 / Fold change (Aza/veh), C12orf56 (ProbeSet 11735607_a_at) / Fold change (ACY-1035/veh), C12orf56 (ProbeSet 11735607_a_at) / Fold change (Aza/veh), FGFR1OP (ProbeSet 11751329_s_at) / Fold change (ACY-1035/veh), FGFR1OP (ProbeSet 11751329_s_at) / Fold change (Aza/veh), VPS36 (ProbeSet 11739960_a_at) / Fold change (ACY-1035/veh), VPS36 (ProbeSet 11739960_a_at) / RFU SYPL1 (11715823_x_at) / Fold change /veh SYPL1 (11715823_x_at) / RFU IGFBP7 (11715501_s_at) / Fold change /veh IGFBP7 (11715501_s_at) / RFU REEP3 (11722064_at) / Fold change /veh REEP3 (11722064_at) / RFU IGLL1 (11728026_x_at) / Fold change /veh IGLL1 (11728026_x_at): dose or concentration left out as unconfirmed
Conditions: ProbeSet 11741311_a_at; LIST B

For `Nc1ncn([C@@H]2O[C@H](CO)[C@@H](O)[C@H]2O)c(=O)n1` [azacitidine], the “Fold change vs veh, ZNF655” value was 0.98.
